Patent US11812767B2, “Beverage having Reb D and Reb M” (SUNTORY HOLDINGS LIMITED, priority 2018, dated 2023)

Experiments:
[1] = cited from earlier work
[2] = Degradation of Reb D and Reb M in phosphate buffer at 40° C. for 8 weeks, analysed by HPLC; format: physicochemical; conditions: for % Reb D degradation 2 weeks: 2 weeks at 40° C.; for % Reb D degradation 4 weeks: 4 weeks at 40° C.; for % Reb D degradation 6 weeks: 6 weeks at 40° C.; for % Reb D degradation 8 weeks: 8 weeks at 40° C.
Description: A study was carried out as follows, samples were prepared comprising 50 ppm, 150 ppm, 250 ppm and 400 ppm, of Reb D and samples with the following ratios of Reb D:Reb M 1:4, 1:1, 4:1 wherein the total concentration of the sample was 400 ppm. The samples were prepared in phosphate buffer and the pH was adjusted using phosphoric acid. Samples were prepared at the following pH; 2.0, 2.5, 3.0 and 3.5. These samples were incubated at 40° C. for 8 weeks. This incubation protocol should mimic the degradation at room temperature over 6 months. The amount of Reb D and Reb M in each sample at T=0 was calculated by HPLC this was then used to calculate the amount of remaining Reb M in each sample at each specified time point. Aliquots were taken at 2, 4, 6 and 8 weeks and analysed by HPLC to determine the degradation of Reb D and combinations of Reb D and Reb M over the 8 week study.

[3] = pH 2, Reb D 0.008 % w/w + Reb M 0.032 % w/w
[4] = pH 2, Reb D 0.02 % w/w + Reb M 0.02 % w/w
[5] = pH 2, Reb D 0.032 % w/w + Reb M 0.008 % w/w
[6] = pH 2.5, Reb D 0.005 % w/w alone
[7] = pH 2.5, Reb D 0.008 % w/w + Reb M 0.032 % w/w
[8] = pH 2.5, Reb D 0.015 % w/w alone
[9] = pH 2.5, Reb D 0.02 % w/w + Reb M 0.02 % w/w
[10] = pH 2.5, Reb D 0.025 % w/w alone
[11] = pH 2.5, Reb D 0.032 % w/w + Reb M 0.008 % w/w
[12] = pH 3, Reb D 0.008 % w/w + Reb M 0.032 % w/w
[13] = pH 3, Reb D 0.02 % w/w + Reb M 0.02 % w/w
[14] = pH 3, Reb D 0.032 % w/w + Reb M 0.008 % w/w
[15] = pH 3.5, Reb D 0.005 % w/w alone
[16] = pH 3.5, Reb D 0.008 % w/w + Reb M 0.032 % w/w
[17] = pH 3.5, Reb D 0.015 % w/w alone
[18] = pH 3.5, Reb D 0.02 % w/w + Reb M 0.02 % w/w
[19] = pH 3.5, Reb D 0.025 % w/w alone
[20] = pH 3.5, Reb D 0.032 % w/w + Reb M 0.008 % w/w

C=C1C[C@@]23CC[C@H]4[C@@](C)(CCC[C@@]4(C)C(=O)O[C@@H]4O[C@H](CO)[C@@H](O)[C@H](O)[C@H]4O[C@@H]4O[C@H](CO)[C@@H](O)[C@H](O)[C@H]4O)[C@@H]2CC[C@]1(O[C@@H]1O[C@H](CO)[C@@H](O)[C@H](O[C@@H]2O[C@H](CO)[C@@H](O)[C@H](O)[C@H]2O)[C@H]1O[C@@H]1O[C@H](CO)[C@@H](O)[C@H](O)[C@H]1O)C3 [Reb D, rebaudioside D]
Sweetness potency (relative to sucrose) [1]: 221
degradation of low concentration sample of Reb D versus higher concentration samples ([2]; across pH 2.0 to 3.5): degraded more quickly
additional degradation of 50 ppm Reb D sample versus 80 ppm Reb D sample in combination with 320 ppm Reb M ([2]; pH 2.0): approx. 10%
% Reb D degradation 2 weeks ([2]; pH 2, Reb D 0.005 % w/w alone): 37%
% Reb D degradation 4 weeks ([2]; pH 2, Reb D 0.005 % w/w alone): 73%
% Reb D degradation 6 weeks ([2]; pH 2, Reb D 0.005 % w/w alone): 84%
% Reb D degradation 8 weeks ([2]; pH 2, Reb D 0.005 % w/w alone): 91%
% Reb D degradation 2 weeks [2, 3]: 36%
% Reb D degradation 4 weeks [2, 3]: 62%
% Reb D degradation 6 weeks [2, 3]: 76%
% Reb D degradation 8 weeks [2, 3]: 85%
% Reb D degradation 2 weeks ([2]; pH 2, Reb D 0.015 % w/w alone): 28%
% Reb D degradation 4 weeks ([2]; pH 2, Reb D 0.015 % w/w alone): 70%
% Reb D degradation 6 weeks ([2]; pH 2, Reb D 0.015 % w/w alone): 82%
% Reb D degradation 8 weeks ([2]; pH 2, Reb D 0.015 % w/w alone): 90%
% Reb D degradation 2 weeks [2, 4]: 28%
% Reb D degradation 4 weeks [2, 4]: 59%
% Reb D degradation 6 weeks [2, 4]: 72%
% Reb D degradation 8 weeks [2, 4]: 82%
% Reb D degradation 2 weeks ([2]; pH 2, Reb D 0.025 % w/w alone): 32%
% Reb D degradation 4 weeks ([2]; pH 2, Reb D 0.025 % w/w alone): 68%
% Reb D degradation 6 weeks ([2]; pH 2, Reb D 0.025 % w/w alone): 81%
% Reb D degradation 8 weeks ([2]; pH 2, Reb D 0.025 % w/w alone): 89%
% Reb D degradation 2 weeks [2, 5]: 37%
% Reb D degradation 4 weeks [2, 5]: 63%
% Reb D degradation 6 weeks [2, 5]: 78%
% Reb D degradation 8 weeks [2, 5]: 86%
% Reb D degradation 2 weeks ([2]; pH 2, Reb D 0.04 % w/w alone): 32%
% Reb D degradation 4 weeks ([2]; pH 2, Reb D 0.04 % w/w alone): 66%
% Reb D degradation 6 weeks ([2]; pH 2, Reb D 0.04 % w/w alone): 79%
% Reb D degradation 8 weeks ([2]; pH 2, Reb D 0.04 % w/w alone): 86%
degradation of Reb D samples which also contained Reb M versus Reb D samples alone (FIG. 4) ([2]; pH 2.0 and 2.5, averaged over samples): degraded less
% Reb D degradation 2 weeks [2, 6]: 11%
% Reb D degradation 4 weeks [2, 6]: 37%
% Reb D degradation 6 weeks [2, 6]: 44%
% Reb D degradation 8 weeks [2, 6]: 55%
% Reb D degradation 2 weeks [2, 7]: 8%
% Reb D degradation 4 weeks [2, 7]: 28%
% Reb D degradation 6 weeks [2, 7]: 37%
% Reb D degradation 8 weeks [2, 7]: 42%
% Reb D degradation 2 weeks [2, 8]: 10%
% Reb D degradation 4 weeks [2, 8]: 32%
% Reb D degradation 6 weeks [2, 8]: 40%
% Reb D degradation 8 weeks [2, 8]: 50%
% Reb D degradation 2 weeks [2, 9]: 7%
% Reb D degradation 4 weeks [2, 9]: 25%
% Reb D degradation 6 weeks [2, 9]: 33%
% Reb D degradation 8 weeks [2, 9]: 42%
% Reb D degradation 2 weeks [2, 10]: 8%
% Reb D degradation 4 weeks [2, 10]: 27%
% Reb D degradation 6 weeks [2, 10]: 34%
% Reb D degradation 8 weeks [2, 10]: 44%
% Reb D degradation 2 weeks [2, 11]: 5%
% Reb D degradation 4 weeks [2, 11]: 23%
% Reb D degradation 6 weeks [2, 11]: 33%
% Reb D degradation 8 weeks [2, 11]: 42%
% Reb D degradation 2 weeks ([2]; pH 2.5, Reb D 0.04 % w/w alone): 7%
% Reb D degradation 4 weeks ([2]; pH 2.5, Reb D 0.04 % w/w alone): 25%
% Reb D degradation 6 weeks ([2]; pH 2.5, Reb D 0.04 % w/w alone): 34%
% Reb D degradation 8 weeks ([2]; pH 2.5, Reb D 0.04 % w/w alone): 43%
% Reb D degradation 2 weeks ([2]; pH 3, Reb D 0.005 % w/w alone): 0%
% Reb D degradation 4 weeks ([2]; pH 3, Reb D 0.005 % w/w alone): 17%
% Reb D degradation 6 weeks ([2]; pH 3, Reb D 0.005 % w/w alone): 22%
% Reb D degradation 8 weeks ([2]; pH 3, Reb D 0.005 % w/w alone): 29%
% Reb D degradation 2 weeks [2, 12]: 1%
% Reb D degradation 4 weeks [2, 12]: 17%
% Reb D degradation 6 weeks [2, 12]: 22%
% Reb D degradation 8 weeks [2, 12]: 24%
% Reb D degradation 2 weeks ([2]; pH 3, Reb D 0.015 % w/w alone): 0%
% Reb D degradation 4 weeks ([2]; pH 3, Reb D 0.015 % w/w alone): 11%
% Reb D degradation 6 weeks ([2]; pH 3, Reb D 0.015 % w/w alone): 16%
% Reb D degradation 8 weeks ([2]; pH 3, Reb D 0.015 % w/w alone): 22%
% Reb D degradation 2 weeks [2, 13]: 0%
% Reb D degradation 4 weeks [2, 13]: 17%
% Reb D degradation 6 weeks [2, 13]: 20%
% Reb D degradation 8 weeks [2, 13]: 23%
% Reb D degradation 2 weeks ([2]; pH 3, Reb D 0.025 % w/w alone): 1%
% Reb D degradation 4 weeks ([2]; pH 3, Reb D 0.025 % w/w alone): 10%
% Reb D degradation 6 weeks ([2]; pH 3, Reb D 0.025 % w/w alone): 13%
% Reb D degradation 8 weeks ([2]; pH 3, Reb D 0.025 % w/w alone): 19%
% Reb D degradation 2 weeks [2, 14]: 1%
% Reb D degradation 4 weeks [2, 14]: 14%
% Reb D degradation 6 weeks [2, 14]: 17%
% Reb D degradation 8 weeks [2, 14]: 20%
% Reb D degradation 2 weeks ([2]; pH 3, Reb D 0.04 % w/w alone): 0%
% Reb D degradation 4 weeks ([2]; pH 3, Reb D 0.04 % w/w alone): 9%
% Reb D degradation 6 weeks ([2]; pH 3, Reb D 0.04 % w/w alone): 11%
% Reb D degradation 8 weeks ([2]; pH 3, Reb D 0.04 % w/w alone): 18%
% Reb D degradation 8 weeks ([2]; pH 3.5, Reb D 0.005 % w/w (50 ppm) alone): 20%
% Reb D degradation 2 weeks [2, 15]: 1%
% Reb D degradation 4 weeks [2, 15]: 10%
% Reb D degradation 6 weeks [2, 15]: 14%
% Reb D degradation 2 weeks [2, 16]: 0%
% Reb D degradation 4 weeks [2, 16]: 6%
% Reb D degradation 6 weeks [2, 16]: 6%
% Reb D degradation 8 weeks [2, 16]: 9%
% Reb D degradation 2 weeks [2, 17]: 0%
% Reb D degradation 4 weeks [2, 17]: 4%
% Reb D degradation 6 weeks [2, 17]: 5%
% Reb D degradation 8 weeks [2, 17]: 8%
% Reb D degradation 2 weeks [2, 18]: 0%
% Reb D degradation 4 weeks [2, 18]: 6%
% Reb D degradation 6 weeks [2, 18]: 8%
% Reb D degradation 8 weeks [2, 18]: 9%
% Reb D degradation 2 weeks [2, 19]: 0%
% Reb D degradation 4 weeks [2, 19]: 2%
% Reb D degradation 6 weeks [2, 19]: 2%
% Reb D degradation 8 weeks [2, 19]: 5%
% Reb D degradation 2 weeks [2, 20]: 1%
% Reb D degradation 4 weeks [2, 20]: 2%
% Reb D degradation 6 weeks [2, 20]: 2%
% Reb D degradation 8 weeks [2, 20]: 5%
% Reb D degradation 8 weeks ([2]; pH 3.5, Reb D 0.04 % w/w (400 ppm) alone): 5%
% Reb D degradation 2 weeks ([2]; pH 3.5, Reb D 0.04 % w/w alone): 1%
% Reb D degradation 4 weeks ([2]; pH 3.5, Reb D 0.04 % w/w alone): 1%
% Reb D degradation 6 weeks ([2]; pH 3.5, Reb D 0.04 % w/w alone): 1%
stability of Reb D combined with Reb M in a ratio of about 1:1, compared to on its own ([2]; pH range 2.0 to 2.5): most stable
